Source: patent US20090069565A1, “NEW INDOLE DERIVATIVES AS FACTOR XA INHIBITORS” (priority 2001, published 2009)
Where two headings read alike, the source gives them in different places.

Biological target: human factor Xa (Homo sapiens, UniProt P00742)
Assay: Factor Xa assay (chromogenic, substrate S-2765);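 note: purified enzyme preincubated with inhibitor for 10 min before substrate addition, final reaction volume 100 µl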
Type: biochemical
[1] = inhibition constant for factor Xa, purified enzyme 0.5 nM, substrate S-2765 140 μM, 25° C., pH 7.8, Ki=IC50/{1+(substrate concentration/Km)}, read-out: Ki(FXa)

Chain of human factor Xa (P00742 235-488 limits assumed): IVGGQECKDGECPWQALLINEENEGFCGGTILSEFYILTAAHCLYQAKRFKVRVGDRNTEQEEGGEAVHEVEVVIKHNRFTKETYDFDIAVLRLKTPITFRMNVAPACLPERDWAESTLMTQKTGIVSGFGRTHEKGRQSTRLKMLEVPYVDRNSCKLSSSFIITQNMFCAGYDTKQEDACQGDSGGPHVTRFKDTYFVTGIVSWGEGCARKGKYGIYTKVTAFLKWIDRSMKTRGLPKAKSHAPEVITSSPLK
Chain of human factor Xa (P00742 41-179 partner limits assumed): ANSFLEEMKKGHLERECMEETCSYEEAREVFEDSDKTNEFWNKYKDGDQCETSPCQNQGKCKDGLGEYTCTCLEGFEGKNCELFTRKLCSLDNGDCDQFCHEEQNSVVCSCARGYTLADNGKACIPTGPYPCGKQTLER

Row | Compound | Ki (read-out: Ki(FXa)) [µM] | further results
1 | CC(C)N1CCC(NC(=O)c2cc3cc(S(C)(=O)=O)ccc3n2CC(=O)Nc2ccc(Cl)cn2)CC1 [Example 214, 1-[(5-Chloro-pyridin-2-ylcarbamoyl)-methyl]-5-methanesulfonyl-1H-indole-2-carboxylic acid (1-isopropyl-piperidin-4-yl)-amide] | 0.052 | –
2 | CCOC(=O)CN(C(=O)c1cc2cccc(C)c2n1Cc1cc(-c2ccc(Cl)s2)on1)C1CCN(C(C)C)CC1 [Example 184, [{1-[5-(5-Chloro-thiophen-2-yl)-isoxazol-3-ylmethyl]-7-methyl-1H-Indole-2-carbonyl}-(1-isopropyl-piperidin-4-yl)-amino]-acetic acid ethyl ester] | 0.013 | –
3 | CC(C)N1CCC(NC(=O)c2cc3ccccc3n2Cc2cc(Cl)cc(Cl)c2)CC1 [Example 157, 1-(3,5-Dichloro-benzyl)-1H-indole-2-carboxylic acid (1-isopropyl-piperidin-4-yl)-amide] | 0.686 | –
4 | CC(C)N1CCC(NC(=O)c2cc3cc(C(=O)O)ccc3n2CC(=O)Nc2ccc(Cl)cc2)CC1 [Example 244, 1-[(4-Chloro-phenylcarbamoyl)-methyl]-2-(1-isopropyl-piperidin-4-ylcarbamoyl)-1H-indole-5-carboxylic acid] | 0.004 | –
5 | COc1cccc(Cn2c(C(=O)NC3CCN(C(C)C)CC3)cc3cc(OCc4ccccc4)ccc32)c1 [Example 70] | 0.114 | –
6 | COc1cc(OC)c2cc(C(=O)NC3CCN(C(C)C)CC3)n(Cc3cc(-c4ccc(Cl)s4)on3)c2c1 [Example 9] | 0.003 | –
7 | CC(C)N1CCC(NC(=O)c2c(F)c3ccccc3n2Cc2cc(-c3ccc(Cl)s3)on2)CC1 [Example 159, 3-Fluoro-1-[5-(5-chloro-thiophen-2-yl)-isoxazol-3-ylmethyl]-1H-indole-2-carboxylic acid (1-isopropyl-piperidin-4-yl)-amide] | – | Ki [1]: 0.002 µM
8 | CC(C)N1CCC(NC(=O)c2cc3ccccc3n2Cc2cccc(C(N)=O)c2)CC1 [Example 165, 1-(3-Carbamoyl-benzyl)-1H-indole-2-carboxylic acid (1-isopropyl-piperidin-4-yl)-amide] | 0.765 | –
9 | CCN1CCC(NC(=O)c2cc3cccc(C)c3n2Cc2cc(-c3ccc(Cl)s3)on2)CC1 [Example 37, 1-[5-(5-Chloro-thiophen-2-yl)-isoxazol-3-ylmethyl]-7-methyl-1H-indole-2-carboxylic acid (1-ethyl-piperidin-4-yl)-amide] | 0.003 | –
10 | CC(C)N1CCC(NC(=O)c2cc3c(Cl)c(N)ccc3n2Cc2cc(-c3ccc(Cl)s3)on2)CC1 [Example 258, 5-amino-4-chloro-1-[5-(5-chloro-thiophen-2-yl)-isoxazol-3-ylmethyl]-1H-indole-2-carboxylic acid (1-isopropyl-piperidin-4-yl)-amide] | 0.011 | –
11 | CC(C)N1CCC(NC(=O)c2cc3cc(Cl)ccc3n2CC(=O)Nc2ccc(Cl)cn2)CC1 [Example 216, 5-Chloro-1-[(5-chloro-pyridin-2-ylcarbamoyl)-methyl]-1H-indole-2-carboxylic acid (1-isopropyl-piperidin-4-yl)-amide] | 0.009 | –
12 | Cc1cccc2cc(C(=O)N(CC(=O)O)C3CCN(C(C)C)CC3)n(Cc3cc(-c4ccc(Cl)s4)on3)c12 [Example 185, [{1-[5-(5-Chloro-thiophen-2-yl)-isoxazol-3-ylmethyl]-7-methyl-1H-indole-2-carbonyl}-(1-isopropyl-piperidin-4-yl)-amino]-acetic acid] | 0.005 | –
13 | CC(C)N1CCC(NC(=O)c2c(-c3ccccc3)c3cc(Cl)ccc3n2Cc2cc(-c3ccc(Cl)s3)on2)CC1 [Example 25] | 0.336 | –
14 | COc1cccc(Cn2c(C(=O)NC3CCN(C(C)C)CC3)cc3c(OC)cccc32)c1 [Example 66, 4-Methoxy-1-(3-methoxy-benzyl)-1H-indole-2-carboxylic acid (1-isopropyl-piperidin-4-yl)-amide] | 0.043 | –
15 | O=C(c1cc2ccccc2n1Cc1cc(-c2ccc(Cl)s2)on1)N(c1ccncc1)C1CCN(c2ccncc2)CC1 [Example 204, 1-[5-(5-Chloro-thiophen-2-yl)-isoxazol-3-ylmethyl]-1H-indole-2-carboxylic acid pyridin-4-yl-(3,4,5,6-tetrahydro-2H-[1,4′]bipyridinyl-4-yl)-amide] | – | Ki: 0.074 µM
16 | CCOC(=O)OC(C)OC(=O)c1ccc2c(c1)cc(C(=O)NC1CCN(C(C)C)CC1)n2Cc1cc(-c2ccc(Cl)s2)on1 (stereo not shown) [Example 268, 1-[5-(5-Chloro-thiophen-2-yl)-isoxazol-3-ylmethyl]-2-(1-isopropyl-piperidin-4-ylcarbamoyl)-1H-indole-5-carboxylic acid 1-ethoxycarbonyloxy-ethyl ester] | 0.042 | –
17 | CC(C)N1CCC(NC(=O)c2cc3cc(S(C)(=O)=O)ccc3n2CC(=O)Nc2ccc(Cl)cc2)CC1 [Example 215, 1-[(4-Chloro-phenylcarbamoyl)-methyl]-5-methanesulfonyl-1H-indole-2-carboxylic acid (1-isopropyl-piperidin-4-yl)-amide] | 0.023 | –
18 | CCC(CC)N1CCC(NC(=O)c2cc3ccccc3n2Cc2cc(-c3ccc(Cl)s3)on2)CC1 [Example 186, 1-[5-(5-Chloro-thiophen-2-yl)-isoxazol-3-ylmethyl]-1H-indole-2-carboxylic acid [1-(1-ethyl-propyl)-piperidin-4-yl]-amide] | – | Ki [1]: 0.22 µM
19 | COc1cccc(Cn2c(C(=O)NC3CCN(C(C)C)CC3)cc3cc([N+](=O)[O-])ccc32)c1 [Example 71, 1-(3-Methoxy-benzyl)-5-nitro-1H-indole-2-carboxylic acid (1-isopropyl-piperidin-4-yl)-amide] | 0.277 | –
20 | CC(C)N1CCC(NC(=O)c2c(C#N)c3ccccc3n2Cc2cc(-c3ccc(Cl)s3)on2)CC1 [Example 160, 1-[5-(5-Chloro-thiophen-2-yl)-isoxazol-3-ylmethyl]-3-cyano-1H-indole-2-carboxylic acid (1-isopropyl-piperidin-4-yl)-amide] | – | Ki: 0.0001 µM
21 | CC(C)N1CCC(NC(=O)c2cc3cc(C#N)ccc3n2Cc2cc(-c3ccc(Cl)s3)on2)CC1 [Example 176, 1-[5-(5-Chloro-thiophen-2-yl)-isoxazol-3-ylmethyl]-5-cyano-1H-indole-2-carboxylic acid (1-isopropyl-piperidin-4-yl)-amide] | – | Ki [1]: 0.002 µM
22 | COc1cc2cc(C(=O)NC3CCN(C(C)C)CC3)n(Cc3cc(-c4ccc(Cl)s4)on3)c2cc1O [Example 17] | 1.97 | –
23 | O=C(c1cc2ccccc2n1Cc1cc(-c2ccc(Cl)s2)on1)N1CCN(Cc2ccncc2)CC1 [Example 43, {1-[5-(5-Chloro-thiophen-2-yl)-isoxazol-3-ylmethyl]-1H-indol-2-yl}-(4-pyridin-4-ylmethyl-piperazin-1-yl)-methanone] | 0.504 | –
24 | CC(C)N1CC[C@@H](NC(=O)c2cc3ccccc3n2Cc2cc(-c3ccc(Cl)s3)on2)C1 [Example 221, R-1-[5-(5-Chloro-thiophen-2-yl)-isoxazol-3-ylmethyl]-1H-indole-2-carboxylic acid (1-isopropyl-pyrrolidin-3-yl)-amide] | – | Ki [1]: 0.048 µM
25 | CC(C)N1CCC(N(CC(=O)O)C(=O)c2cc3c(Cl)cccc3n2Cc2cc(-c3ccc(Cl)s3)on2)CC1 [Example 234, [{4-Chloro-1-[5-(5-chloro-thiophen-2-yl)-isoxazol-3-ylmethyl]-1H-indole-2-carbonyl}-(1-isopropyl-piperidin-4-yl)-amino]-acetic acid] | 0.056 | –
